We go through 15 compounds from patent US20050192279A1, “Pyridazinones as antagonists of alpha4 integrins” (priority 2004, published 2005).

One assay deals with T1, α4β1 (Homo sapiens, UniProt P05556+P13612).
T1 construct: Ramos Cell Adhesion Assay (α4β1 Mediated Adhesion/VCAM-1); endogenous in cells; host or cells: Ramos cells
In words: Ramos Cell Adhesion Assay (α4β1 Mediated Adhesion/VCAM-1). It counts as cell-based. Conditions: Ramos cell adhesion to hVCAM-1; read-out: α4β1 IC50. An outline of the steps: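 Plates coated overnight at 4° C with recombinant hVCAM-1 at 4.0 μg/mL, pH 9.0, then blocked in PBS/1% BSA. Calcein AM-labeled Ramos cells added with compounds and left to adhere 1 h at room temperature; after washing, cells lysed in 1 M Tris pH 8.0/1% SDS.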

Another assay deals with T2, human α4β7 integrin (Homo sapiens, UniProt P13612+P26010).
T2 construct: expressed in transfected cells; host or cells: K562 cells, stably transfected
T2 sequence (P13612 34-1032): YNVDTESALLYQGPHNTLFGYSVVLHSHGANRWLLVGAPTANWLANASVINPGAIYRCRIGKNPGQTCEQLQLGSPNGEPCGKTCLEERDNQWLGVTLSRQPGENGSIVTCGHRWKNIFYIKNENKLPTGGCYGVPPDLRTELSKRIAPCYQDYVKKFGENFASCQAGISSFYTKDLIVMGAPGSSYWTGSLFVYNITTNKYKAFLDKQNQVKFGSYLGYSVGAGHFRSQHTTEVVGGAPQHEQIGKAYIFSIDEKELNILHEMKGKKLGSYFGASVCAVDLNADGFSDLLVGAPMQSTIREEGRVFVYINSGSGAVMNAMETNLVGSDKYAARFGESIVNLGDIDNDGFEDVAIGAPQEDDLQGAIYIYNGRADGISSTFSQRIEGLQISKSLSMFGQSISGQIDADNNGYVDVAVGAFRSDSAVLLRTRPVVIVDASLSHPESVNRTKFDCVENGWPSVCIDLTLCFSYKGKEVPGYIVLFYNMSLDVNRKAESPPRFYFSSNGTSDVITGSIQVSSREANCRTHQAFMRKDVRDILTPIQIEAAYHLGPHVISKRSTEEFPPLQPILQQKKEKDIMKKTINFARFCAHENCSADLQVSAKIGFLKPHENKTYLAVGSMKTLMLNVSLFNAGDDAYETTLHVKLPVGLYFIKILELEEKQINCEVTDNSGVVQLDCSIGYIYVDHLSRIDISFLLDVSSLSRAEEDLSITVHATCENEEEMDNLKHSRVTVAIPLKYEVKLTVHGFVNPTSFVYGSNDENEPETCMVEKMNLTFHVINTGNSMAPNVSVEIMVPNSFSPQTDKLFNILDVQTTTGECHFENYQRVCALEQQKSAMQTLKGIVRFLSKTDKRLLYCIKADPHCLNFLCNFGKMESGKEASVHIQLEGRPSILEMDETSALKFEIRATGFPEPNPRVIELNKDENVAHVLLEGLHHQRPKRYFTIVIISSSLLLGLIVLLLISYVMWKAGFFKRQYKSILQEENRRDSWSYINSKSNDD
T2 sequence (P26010 20-798): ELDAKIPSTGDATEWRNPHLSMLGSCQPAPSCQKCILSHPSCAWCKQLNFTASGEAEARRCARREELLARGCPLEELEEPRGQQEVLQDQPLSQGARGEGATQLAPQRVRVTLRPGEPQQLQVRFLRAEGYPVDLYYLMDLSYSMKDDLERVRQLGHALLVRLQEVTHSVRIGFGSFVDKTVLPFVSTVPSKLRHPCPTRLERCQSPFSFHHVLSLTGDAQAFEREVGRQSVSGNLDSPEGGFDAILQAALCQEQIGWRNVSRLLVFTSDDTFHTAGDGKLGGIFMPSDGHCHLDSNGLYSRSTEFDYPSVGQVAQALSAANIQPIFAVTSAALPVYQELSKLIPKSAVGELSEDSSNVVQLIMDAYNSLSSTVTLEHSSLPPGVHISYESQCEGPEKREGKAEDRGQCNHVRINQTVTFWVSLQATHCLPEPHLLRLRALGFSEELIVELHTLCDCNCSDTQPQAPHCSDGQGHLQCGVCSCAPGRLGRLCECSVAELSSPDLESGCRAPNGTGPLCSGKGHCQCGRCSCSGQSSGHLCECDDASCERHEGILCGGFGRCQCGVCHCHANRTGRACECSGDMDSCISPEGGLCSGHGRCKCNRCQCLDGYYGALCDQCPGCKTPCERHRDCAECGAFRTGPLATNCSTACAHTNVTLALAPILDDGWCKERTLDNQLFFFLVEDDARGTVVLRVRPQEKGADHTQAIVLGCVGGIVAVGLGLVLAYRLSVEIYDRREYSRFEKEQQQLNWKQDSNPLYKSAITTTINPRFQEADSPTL
Kind of assay: α4β7-K562 Cell Adhesion Assay (α4β7 Mediated Adhesion/MAdCAM-1). Type of assay: cell-based. As to conditions: α4β7-K562 cell adhesion to hMAdCAM-1; read-out: α4β7 IC50. The gist of the method:
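Anti-FLAG plates coated 1 h at 4° C with FLAG-hMAdCAM-1 in PBS pH 7.4, 1% BSA, 1 mM Mn2+. Stably transfected K562 cells expressing human α4β7, labelled with CFDA-SE, adhered with compound 1 h at room temperature. After four washes, bound cells lysed in 0.1 M NaOH for fluorescence read-out.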

T1 sequence (P05556 21-798, one chain of several): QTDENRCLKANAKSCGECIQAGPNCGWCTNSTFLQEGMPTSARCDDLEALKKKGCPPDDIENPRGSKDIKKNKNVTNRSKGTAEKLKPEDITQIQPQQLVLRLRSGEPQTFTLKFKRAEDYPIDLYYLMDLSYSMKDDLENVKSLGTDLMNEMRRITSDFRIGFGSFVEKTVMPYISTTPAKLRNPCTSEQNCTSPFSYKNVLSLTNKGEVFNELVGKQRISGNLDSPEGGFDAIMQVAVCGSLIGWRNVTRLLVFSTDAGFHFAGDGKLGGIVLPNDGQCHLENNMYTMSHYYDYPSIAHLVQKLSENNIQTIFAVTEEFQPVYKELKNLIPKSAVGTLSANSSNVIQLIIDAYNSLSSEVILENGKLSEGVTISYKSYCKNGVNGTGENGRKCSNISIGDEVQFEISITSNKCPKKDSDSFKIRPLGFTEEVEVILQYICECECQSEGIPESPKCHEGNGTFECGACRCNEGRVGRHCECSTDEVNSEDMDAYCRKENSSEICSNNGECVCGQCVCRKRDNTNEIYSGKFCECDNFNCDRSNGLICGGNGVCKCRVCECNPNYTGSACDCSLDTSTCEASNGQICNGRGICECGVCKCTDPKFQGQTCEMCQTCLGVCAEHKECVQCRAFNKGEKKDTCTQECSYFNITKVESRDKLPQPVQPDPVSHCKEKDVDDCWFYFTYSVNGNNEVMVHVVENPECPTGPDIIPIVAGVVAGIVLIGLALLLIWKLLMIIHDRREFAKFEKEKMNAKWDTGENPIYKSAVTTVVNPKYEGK

A word on the IC50: it is the concentration at which inhibition is half-maximal. In the case of `COc1cnn(CC(N)=O)c(=O)c1-c1ccc(C[C@H](NC(=O)c2c(Cl)cccc2Cl)C(=O)O)cc1` [Cpd 5], the IC50 came out at 307 nM at α4β1 and 1 nM at human α4β7 integrin.
As for `COc1cnn(CCN2CCOCC2)c(=O)c1-c1ccc(C[C@H](NC(=O)c2c(Cl)cccc2Cl)C(=O)O)cc1` [Cpd 10], the IC50 at α4β1 worked out at 363 nM; at human α4β7 integrin it was 2 nM.
In the case of `COc1cnn(CC(=O)O)c(=O)c1-c1ccc(C[C@H](NC(=O)c2c(Cl)cccc2Cl)C(=O)O)cc1` [Cpd 11], the results for the IC50 on α4β1 and at human α4β7 integrin were 842 nM and 2 nM, respectively.
The corresponding values for `COc1cnn(CCO)c(=O)c1-c1ccc(C[C@H](NC(=O)c2c(Cl)cccc2Cl)C(=O)O)cc1` [Cpd 15, (S)-2-(2,6-Dichloro-benzoylamino)-3{4-[2-(2-hydroxy-ethyl)-5-methoxy-3-oxo-2,3-dihydro-pyridazin-4-yl]-phenyl}-propionic acid] are 125 nM and 2 nM.
The corresponding values for `CNc1cnn(CC(C)=O)c(=O)c1-c1ccc(C[C@H](NC(=O)c2c(Cl)cccc2Cl)C(=O)O)cc1` [Cpd 18] are greater than 1000 nM and 3 nM.
As for `O=C(N[C@@H](Cc1ccc(-c2c(OCc3cccnc3)cnn(CCO)c2=O)cc1)C(=O)O)c1c(Cl)cccc1Cl` [Cpd 30], the IC50 at α4β1 came out at 284 nM; at human α4β7 integrin, 6 nM.
On to `O=C(N[C@@H](Cc1ccc(-c2c(OCC3CC3)cnn(CCO)c2=O)cc1)C(=O)O)c1c(Cl)cccc1Cl` [Cpd 35], for which the values for the IC50 on α4β1 and at human α4β7 integrin were 342 nM and 8 nM, respectively.
As to `Cn1ncc(N)c(-c2ccc(C[C@H](NC(=O)c3c(Cl)cccc3Cl)C(=O)O)cc2)c1=O` [Cpd 46], the concentration for half-maximal inhibition (IC50) on α4β1 worked out at 370 nM; on human α4β7 integrin, 13 nM.
Regarding `O=C(N[C@@H](Cc1ccc(-c2c(N3CCOCC3)cnn(CCO)c2=O)cc1)C(=O)O)c1c(Cl)cccc1Cl` [Cpd 61], the IC50 on α4β1 came out at 221 nM; on human α4β7 integrin, 20 nM.
Regarding `COc1cnn(C)c(=O)c1-c1ccc(C[C@H](NC(=O)[C@@H]2C3CCC(CC3)N2C(=O)CCc2ccccc2)C(=O)O)cc1` [Cpd 89, 3-[4-(5-Methoxy-2-methyl-3-oxo-2,3-dihydro-pyridazin-4-yl)-phenyl]-2(S)-{[2-(3-phenyl-propionyl)-2-aza-bicyclo[2.2.2]octane-3(S)-carbonyl]-amino}-propionic acid], the IC50 was found to be 39.7 nM on α4β1 and 47 nM at human α4β7 integrin.
In the case of `COc1cnn(CCO)c(=O)c1-c1ccc(C[C@H](NC(=O)OC(C)(C)C)C(=O)O)cc1` [Cpd 120], at human α4β7 integrin, the 50% inhibitory concentration (IC50) worked out at 113 nM.
On to `COC(=O)[C@H](Cc1ccc(-c2c(OC)cnn(C)c2=O)cc1)NC(=O)c1c(Cl)cccc1Cl` [Cpd 151], for which the figures for the concentration for half-maximal inhibition (IC50) at α4β1 and on human α4β7 integrin were greater than 5000 nM and 274 nM, respectively.
The corresponding values for `COc1cnn(CCO)c(=O)c1-c1ccc(C[C@H](NC(=O)c2c(Cl)cccc2Cl)C(=O)OCCO)cc1` [Cpd 199] are greater than 5000 nM and 1370 nM.
With `COc1cnn(C)c(=O)c1-c1ccc(C[C@H](NC(=O)c2c(Cl)cccc2Cl)C(=O)OCC(C)(C)C)cc1` [Cpd 207], the IC50 on α4β1 is greater than 5000 nM; on human α4β7 integrin, 2690 nM.
The corresponding values for `Cn1ncc(N)c(-c2ccc(C[C@H](NC(=O)c3c(Cl)cccc3Cl)C(=O)OCCO)cc2)c1=O` [Cpd 232] are greater than 5000 nM and greater than 5000 nM.
